Source: US12421220B2, “Bicyclic-substituted glutarimide cereblon binders” (C4 THERAPEUTICS, INC., priority 2022, dated 2025)

Biological target: T1, BRD4 (Homo sapiens, UniProt O60885)
T1 construct: endogenously expressing BRD4 with HiBiT fusion tag via CRISPR; endogenous in cells; host or cells: 293T.92 (BRD4-HiBiT) cells, a CRISPR knock-in made from 293T
Assay: BRD4 HiBiT degradation assay in 293T.92 (BRD4-HiBiT) cells
Type: cell-based
Details: 293T.92 cells, 24.0 hours
From the text: Example 3: BRD4 HiBiT Method
Dulbecco's modified Eagle medium (DMEM) without phenol red and fetal bovine serum (FBS) were purchased from Gibco (Grand Island, NY, USA). Nano-Glo® HiBiT Lytic Assay System was purchased from Promega (Madison, WI, USA). 293T.92 (BRD4-HiBiT) cell line, endogenously expressing BRD4 with HiBiT fusion tag via CRISPR was made internally from the 293T human cell line acquired from American Type Culture Collection (Rockville, MD, USA). Cell culture flasks and 384-well microplates were acquired from VWR (Radnor, PA, USA) or Corning (Corning, NY, USA).
BRD4 degradation was determined based on quantification of luminescent signal using Nano-Glo® HiBiT Lytic Assay kit. Test compounds were added to the 384-well plate from a top concentration of […] with 11 points, half log titration in duplicates. 293T.92 cells were added into 384-well plates at a cell density of 15000 cells per well. The plates were kept at 37° C. with 5% CO2 for […]. The cells treated in the absence of the test compound were the negative control and the cells without Nano-Glo® HiBiT Lytic reagent were the positive control. After 24-hour incubation, Nano-Glo® HiBiT Lytic Assay reagents were added to the cells. Luminescence was acquired on EnVision™ Multilabel Reader (PerkinElmer, Santa Clara, CA, USA).

DC50: < 1000 nM
Emax: < 30%
SMILES: COC(=O)N1c2ccc3c(nc(Cc4ccccc4)n3[C@H]3CCC[C@H](C(=O)N4CCC(c5ccc6c(c5)OCCN6C5CCC(=O)NC5=O)CC4)C3)c2CC[C@@H]1C (stereo partly drawn) [Compound 32-14, methyl (7S)-2-benzyl-7-methyl-3-[(1S,3S)-3-[4-[4-(2,6-dioxo-3-piperidyl)-2,3-dihydro-1,4-benzoxazin-7-yl]piperidine-i-carbonyl]cyclohexyl]-8,9-dihydro-7H-imidazo[4,5-f]quinoline-6-carboxylate]
